pIC50: −log10 of the molar value. Several values for one entry are separate records, joined by “and”; a condition that tells them apart may be missing. Equal entries are not always repeated. Where two headings read alike, the source gives them in different places.
Columns and labels:
Human PiT1 = molecular target: T1, Human PiT1 (Homo sapiens, UniProt Q8WUM9); test: 33P-phosphate uptake in CHO cells over-expressing human PiT1; assay type: cell-based
T1 construct: Full Length cDNA Cloning and Generation of Cell Lines Over-Expressing Human NPT2a, NPT2c, Pit1, and Pit2; host or cells: CHO-K1, pcDNA3.1(+), constitutive
T1 sequence (Q8WUM9 1-679): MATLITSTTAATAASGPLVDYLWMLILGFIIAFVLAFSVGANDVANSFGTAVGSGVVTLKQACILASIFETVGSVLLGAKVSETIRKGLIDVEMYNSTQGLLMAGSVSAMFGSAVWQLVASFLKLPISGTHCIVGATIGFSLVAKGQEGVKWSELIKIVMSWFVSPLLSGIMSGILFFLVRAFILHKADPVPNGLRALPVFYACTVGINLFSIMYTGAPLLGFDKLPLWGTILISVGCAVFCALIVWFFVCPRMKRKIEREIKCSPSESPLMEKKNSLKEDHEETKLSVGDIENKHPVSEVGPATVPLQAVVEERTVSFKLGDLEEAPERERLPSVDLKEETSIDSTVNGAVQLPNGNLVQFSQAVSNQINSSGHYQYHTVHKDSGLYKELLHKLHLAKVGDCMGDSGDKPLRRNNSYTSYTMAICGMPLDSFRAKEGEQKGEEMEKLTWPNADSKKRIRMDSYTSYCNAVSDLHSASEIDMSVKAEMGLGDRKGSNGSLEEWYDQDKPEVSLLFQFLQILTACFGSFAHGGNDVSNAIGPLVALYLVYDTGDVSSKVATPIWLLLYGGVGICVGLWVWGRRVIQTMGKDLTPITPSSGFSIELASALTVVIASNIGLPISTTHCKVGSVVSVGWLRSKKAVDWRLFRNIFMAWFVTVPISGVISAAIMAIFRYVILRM
Experimental: T‐Rex™ Chinese Hamster Ovary cells (CHO; Thermo Fisher Scientific) stably expressing human, mouse, or rat NPT2b under a tetracycline‐inducible promoter were generated using standard cDNA transfection and clone selection procedures (see Supporting Information). Cells were plated in 96‐well CytoStar‐T® scintillating microplates and were incubated overnight in growth media plus 100 ng/ml of tetracycline to induce expression of NPT2b. The next day, cells were washed 3 times with 200 µl assay buffer (137 mM NaCl, 5.4 mM KCl, 2.8 mM CaCl2, 1.2 mM MgSO4, and 14 mM Tris‐HCl buffer, pH 7.5). LY3358966 serially diluted 1‐to‐3 in DMSO was added to cells with assay buffer. An equal volume of H3 ^33PO4 (PerkinElmer) in assay buffer supplemented with 5 µM potassium phosphate was then added to initiate radiolabeled phosphate (^33P‐phosphate) uptake. […] The plate was immediately read on a Wallac MicroBeta Trilux liquid scintillation counter. Percent inhibition at all concentrations tested was calculated, and IC50 values were then determined using a 4‐parameter logistic curve fitting equation.
Similar methods were used to measure the effects of LY3358966 on other transporters of interest, except that constitutive promoters were used to generate CHO cells over‐expressing human PiT1 and PiT2. The ^33P‐phosphate uptake was measured after 45 min at 20°C for the NPT2a, NPT2c, PiT1, and PiT2 assays. […]

[1] = Pharmacokinetic study in mice; assay type: in vivo, mouse; conditions: for bioavailability: po
Experimental: Male CD‐1 male mice were orally dosed with 1, 3, or 10 mg/kg API of LY3358966 SDD dissolved in water or were IV dosed with 1 mg/kg LY3358966 formulated in 25% dimethylacetamide, 15% ethanol, 10% propylene glycol, 25% 2‐pyrrolidone, and 25% water. Each dose group contained six animals. Three animals were bled at 0.25, 0.5, 1, 2, 4, 8, 12, and 24 h, with each animal being bled at alternate time points. Plasma drug levels were determined by HPLC/MS. The unbound fraction of LY3358966 in plasma was determined with equilibrium dialysis and LC‐MS/MS.

[2] = tested on: intestinal phosphate absorption; test: Recovery of radiolabeled phosphate in feces of mice; assay type: in vivo, mouse
Experimental: Male C57BL/6 male mice, 9 weeks old (23–28 g, n = 10/group), were dosed with either placebo or LY3358966 SDD (9 mg/kg API) dissolved in water at t = −4.25, −0.25, and 3.75 h. The animals were fasted from t = −4 to t = 0 h. At t = 0, the animals were dosed with radiolabeled phosphate as described above and were given free access to food. Feces were collected at 6, 24, and 48 h, digested overnight at 37°C in 1 N NaOH, and the recovered radioactivity was determined. Most of the radiolabeled phosphate was recovered in the first 24 h. […] In all cases, the investigators collecting feces were blinded to the treatment.

[3] = across all dose groups, from unbound fraction 0.005
[4] = male, CD-1, mouse, plasma, IV 1 mg/kg
[5] = male, CD-1, mouse, plasma, PO 1 mg/kg
[6] = male, CD-1, mouse, plasma, PO 3 mg/kg
[7] = male, CD-1, mouse, plasma, PO 10 mg/kg
[8] = 9 mg/kg API x 3 doses at 4-h intervals

pIC50 (Human PiT1; 45 min at 20°C): < 4.00
Selectivity (Human PiT1; ratio of IC50 of human PiT1 assay to that of human NPT2b assay): >3086
C max of unbound LY3358966 [1, 3]: < 1 nM
plasma AUC of unbound LY3358966 [1, 3]: < 0.002 µM·h
AUC [1, 4]: 0.323 µM·h
half-life [1, 4]: 300 min
Cmax [1, 5]: 25 nM
Tmax [1, 5]: 24 min
AUC ([1]; male, CD-1, mouse, plasma, PO 1 mg/kg, SDD dissolved in water): 0.039 µM·h
Cmax [1, 6]: 50 nM
Tmax [1, 6]: 24 min
AUC ([1]; male, CD-1, mouse, plasma, PO 3 mg/kg, SDD dissolved in water): 0.096 µM·h
Cmax [1, 7]: 83 nM
Tmax [1, 7]: 24 min
AUC ([1]; male, CD-1, mouse, plasma, PO 10 mg/kg, SDD dissolved in water): 0.284 µM·h
bioavailability ([1]; male, CD-1, mouse, plasma, 1 mg/kg, PO 1 mg/kg, read-out: F (bioavailability)): 12%
bioavailability ([1]; male, CD-1, mouse, plasma, 3 mg/kg, PO 3 mg/kg, read-out: F (bioavailability)): 10%
bioavailability ([1]; male, CD-1, mouse, plasma, 10 mg/kg, PO 10 mg/kg, read-out: F (bioavailability)): 9%
bioavailability ([1]; male, CD-1, mouse, plasma, 10 mg/kg, PO 1, 3 and 10 mg/kg, read-out: oral bioavailability F): 9 to 12%
SMILES: CC1(C)CN(C(=O)NCCCCO)CCN1Cc1cccc(C(=O)Nc2sc3c(c2C(=O)Nc2cc(F)c(CCc4ccc(C(=O)O)cc4)c(F)c2)CCCC3)c1 [LY3358966, 4‐[2‐[2,6‐difluoro‐4‐[[2‐[[3‐[[4‐(4‐hydroxybutylcarbamoyl)‐2,2‐dimethyl‐piperazin‐1‐yl]methyl]benzoyl]amino]‐4,5,6,7‐tetrahydrobenzothiophene‐3‐carbonyl]amino]phenyl]ethyl]benzoic acid]
33P Recovered in Feces (0-6 hrs), Mean ± SEM [2, 8]: 6.08 ± 1.68%
33P Recovered in Feces (6-24 hrs), Mean ± SEM [2, 8]: 10.77 ± 1.57%
33P Recovered in Feces (24-48 hrs), Mean ± SEM [2, 8]: 1.60 ± 0.08%
33P Recovered in Total Feces (0-48 hrs), Mean ± SEM ([2]; 9 mg/kg API x 3 doses at 4-h intervals, 9 mg/kg): 18.44% and 18.44 ± 1.27%
increase in radiolabeled phosphate recovered in feces versus vehicle ([2]; 48 h, 9 mg/kg API x 3, 9 mg/kg): 8.6 % of the dose and 8.58 % of the dose

Source: article PMC8863579, “Effects of pharmacological inhibition of the sodium‐dependent phosphate cotransporter 2b (NPT2b) on intestinal phosphate absorption in mouse and rat models” (Pharmacology Research & Perspectives, 2022)
